Data as given in PubChem BioAssay (NCI).
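Test compounds were applied to cells in 96-well plates for 48 hours at 5 doses. Definition used: TGI = concentration required for complete inhibition of growth.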

Tests used:
Assay in all cases: growth of human tumour cells (NCI), 48 h
[1] = system: HCT-15 colon
[2] = system: NCI-H460 lung
[3] = system: NCI/ADR-RES ovarian
[4] = system: RPMI-8226 leukemia
[5] = system: LOX IMVI melanoma
[6] = system: A498 renal
[7] = system: 786-0 renal
[8] = system: SW-620 colon
[9] = system: T-47D breast
[10] = system: SF-268 CNS
[11] = system: HS 578T breast
[12] = system: OVCAR-5 ovarian
[13] = system: SK-MEL-28 melanoma
[14] = system: MDA-N
[15] = system: CCRF-CEM leukemia
[16] = system: MALME-3M melanoma
[17] = system: SF-539 CNS
[18] = system: UACC-257 melanoma
[19] = system: U251 CNS
[20] = system: DU-145 prostate
[21] = system: SNB-75 CNS
[22] = system: HCT-116 colon
[23] = system: NCI-H226 lung
[24] = system: HL-60(TB) leukemia
[25] = system: SF-295 CNS
[26] = system: SK-MEL-5 melanoma
[27] = system: HCC-2998 colon
[28] = system: HOP-92 NSCLC
[29] = system: COLO 205 colon
[30] = system: SN12C renal
[31] = system: NCI-H522 lung
[32] = system: PC-3 prostate
[33] = system: SNB-19 CNS
[34] = system: KM12 colon
[35] = system: SR leukemia
[36] = system: A549 NSCLC
[37] = system: OVCAR-3 ovarian
[38] = system: BT-549 breast
[39] = system: SK-MEL-2 melanoma
[40] = system: NCI-H23 lung
[41] = system: HT29 colon
[42] = system: UO-31 renal
[43] = system: OVCAR-4 ovarian
[44] = system: HOP-62 NSCLC
[45] = system: M14 melanoma
[46] = system: OVCAR-8 ovarian
[47] = system: CAKI-1 renal
[48] = system: RXF 393 renal
[49] = system: MCF7 breast
[50] = system: MDA-MB-231 breast
[51] = system: SK-OV-3 ovarian
[52] = system: ACHN renal
[53] = system: MDA-MB-435
[54] = system: UACC-62 melanoma
[55] = system: K-562 leukemia
[56] = system: TK-10 renal
[57] = system: EKVX NSCLC
[58] = system: MOLT-4 leukemia
[59] = system: IGROV1 ovarian

SMILES: CCOC(=O)n1c(=O)nc2c3c(ncn21)Oc1c(c(-c2ccccc2)nn1-c1ccccc1)C3c1ccc(Cl)cc1 (stereo not given)
- TGI [1]: 2.4 µM
- TGI [2]: 3.21 µM
- TGI [3]: 3.11 µM
- TGI [4]: 3.3 µM
- TGI [5]: 2.78 µM
- TGI [6]: 3.85 µM
- TGI [7]: 2.85 µM
- TGI [8]: 3.09 µM
- TGI [9]: 3.15 µM
- TGI [10]: 2.92 µM
- TGI [11]: 3.37 µM
- TGI [12]: 3.53 µM
- TGI [13]: 3.18 µM
- TGI [14]: 3.01 µM
- TGI [15]: 2.72 µM
- TGI [16]: 3.24 µM
- TGI [17]: 2.9 µM
- TGI [18]: 3.42 µM
- TGI [19]: 3.06 µM
- TGI [20]: 3.09 µM
- TGI [21]: 4.75 µM
- TGI [22]: 2.82 µM
- TGI [23]: 2.99 µM
- TGI [24]: 2.78 µM
- TGI [25]: 3.26 µM
- TGI [26]: 3.07 µM
- TGI [27]: 1.97 µM
- TGI [28]: 2.85 µM
- TGI [29]: 2.59 µM
- TGI [30]: 3.21 µM
- TGI [31]: 3.11 µM
- TGI [32]: 3.1 µM
- TGI [33]: 2.95 µM
- TGI [34]: 2.89 µM
- TGI [35]: 3.5 µM
- TGI [36]: 3.01 µM
- TGI [37]: 2.79 µM
- TGI [38]: 2.95 µM
- TGI [39]: 3.23 µM
- TGI [40]: 3.17 µM
- TGI [41]: 3.12 µM
- TGI [42]: 2.85 µM
- TGI [43]: 2.47 µM
- TGI [44]: 3.15 µM
- TGI [45]: 3.33 µM
- TGI [46]: 3.06 µM
- TGI [47]: 2.96 µM
- TGI [48]: 2.91 µM
- TGI [49]: 2.9 µM
- TGI [50]: 2.7 µM
- TGI [51]: 6.47 µM
- TGI [52]: 3.09 µM
- TGI [53]: 3.03 µM
- TGI [54]: 3.1 µM
- TGI [55]: 2.41 µM
- TGI [56]: 3.07 µM

SMILES: COc1ccccc1Nc1nc(N)nc(N)c1N
- TGI [1]: > 100 µM
- TGI [2]: > 100 µM
- TGI [3]: > 100 µM
- TGI [4]: 82.7 µM
- TGI [5]: 41.7 µM
- TGI [6]: > 100 µM
- TGI [7]: > 100 µM
- TGI [8]: 72 µM
- TGI [57]: > 100 µM
- TGI [9]: > 100 µM
- TGI [10]: > 100 µM
- TGI [11]: > 100 µM
- TGI [12]: > 100 µM
- TGI [13]: > 100 µM
- TGI [14]: 32.9 µM
- TGI [15]: 50.8 µM
- TGI [16]: > 100 µM
- TGI [17]: > 100 µM
- TGI [18]: > 100 µM
- TGI [19]: > 100 µM
- TGI [20]: > 100 µM
- TGI [21]: > 100 µM
- TGI [22]: 39.8 µM
- TGI [23]: > 100 µM
- TGI [24]: 85 µM
- TGI [25]: 68.5 µM
- TGI [26]: > 100 µM
- TGI [27]: > 100 µM
- TGI [28]: > 100 µM
- TGI [29]: > 100 µM
- TGI [30]: 32.7 µM
- TGI [31]: 67 µM
- TGI [32]: > 100 µM
- TGI [33]: > 100 µM
- TGI [34]: > 100 µM
- TGI [35]: 45.6 µM
- TGI [36]: > 100 µM
- TGI [37]: > 100 µM
- TGI [38]: > 100 µM
- TGI [39]: > 100 µM
- TGI [40]: > 100 µM
- TGI [41]: > 100 µM
- TGI [42]: > 100 µM
- TGI [43]: > 100 µM
- TGI [44]: > 100 µM
- TGI [45]: > 100 µM
- TGI [46]: > 100 µM
- TGI [47]: > 100 µM
- TGI [48]: > 100 µM
- TGI [58]: 31.6 µM
- TGI [59]: > 100 µM
- TGI [49]: > 100 µM
- TGI [50]: 99.6 µM
- TGI [51]: > 100 µM
- TGI [52]: > 100 µM
- TGI [53]: 82.6 µM
- TGI [54]: > 100 µM
- TGI [55]: > 100 µM
- TGI [56]: > 100 µM
